This is an account of results in patent US7671050B2, “Triazolophthalazines” (NYCOMED GmbH, priority 2005, dated 2010).

As a reminder, the IC50 is the concentration that inhibits the measured activity by half. What is called melting point is the temperature of the solid-liquid transition.

No end group written: not given here.

In one data set the test system is HUVEC monolayers. Nature of the data set: Inhibition of thrombin-stimulated macromolecule (HRP) permeability of HUVEC monolayers. The format is cell-based, human. The settings on record: 1 U/ml thrombin; for Effect on thrombin-induced hyperpermeability (HRP passage): 1 μM RP73401 together with 10 μM Motapizone, 60 min; for IC50: Homo sapiens, 1 h, HUVEC on Transwells, 1 μM RP73401, 10 μM Motapizone, 1 mM SNP or 100 nM ANP, HRP passage after 60 min, read-out: Inhibition of SNP- or ANP-induced permeability, -log IC50 (converted). As for the experimental part:
The procedure to measure macromolecule permeability of endothelial cell monolayers followed the method described by Langeler & van Hinsbergh (1988) with modifications. Human umbilical vein endothelial cells were isolated from umbilical cords according to standard procedures (Jaffe et al. 1973) and cultured in endothelial cell basal medium (EBM) supplemented with 2% FCS, 0.5 ng/ml VEGF, 10 ng/ml bFGF, 5 ng/ml EGF, 20 ng/ml Long R3 IGF-1, 0.2 μg/ml hydrocortisone, 1 μg/ml ascorbic acid, 22.5 μg/ml heparin, 50 μg/ml gentamicin, 50 ng/ml amphotericin B (EGM2 purchased from Promocell GmbH, Heidelberg, Germany). At confluency, cells were trypsinized and replated at 73000 cells per well on 3 μm polycarbonate filter Transwell inserts (Costar GmbH, Bodenheim, Germany) precoated with 10 μg cm^2−1 Fibronectin (Sigma, Taufkirchen, Germany). HUVECs were cultured in EGM2 (100 μl in the upper wells and 600 μl in the lower wells) over four days prior the experiments and medium was changed every other day. At the day of the experiment culture medium was replaced by M199 with 1% human serum albumin. Endothelial cells were preincubated with cyclic nucleotide modifiers (the selective PDE3 inhibitor motapizone, the selective PDE4 inhibitor RP73401, the cGMP generators ANP or SNP and PDE2 inhibitors) for 15 min. HUVECs were then stimulated with Thrombin (1 U ml^−1) (Sigma, Taufkichen, Germany) and horsh radish peroxidase (5 μg/ml) (Sigma, Taufkirchen, Germany) as the macromolecule marker protein was added to the upper wells. Following 1 h incubation time Transwells were removed and the activity of horsh radish peroxidase that penetrated the endothelial cell monolayer was measured in the lower wells with the 3,3′,5,5′-tetramethylbenzidine liquid substrate system from Sigma (Taufkirchen, Germany).
In parallel, compounds according to the invention can inhibit Thrombin-induced permeability of HUVEC monolayers for horsh radish peroxidase (HRP) as a macromolecule marker. […] The concentration-dependent inhibition of HRP permeability at different concentrations was assessed from the percent inhibition in the presence and absence of the PDE2 inhibitors and in the presence of 1 μM RP73401, 10 μM Motapizone and 100 nM ANP.
HUVEC cells on 3 μm polycarbonate filters (Transwells) were preincubated with 1 μM RP73401 (to block PDE4) and 10 μM Motapizone (to block PDE3), 1 mM SNP or 100 nM ANP and test sample over 15 min and then stimulated with 1 U/ml thrombin. HRP passage into the lower wells was assessed after 60 min.

Regarding `COc1ccc(C(=O)Nc2c(Cl)cncc2Cl)cc1OC1CCCC1` [RP73401, reference compound], the “Effect on thrombin-induced hyperpermeability (HRP passage)” value with HUVEC monolayers is on record as “completely blocked”.

`COc1ccc(-c2nnc3c4ccccc4c(Nc4ccc(N5CCN(C)CC5)cc4)nn23)cc1` [Example 18, [3-(4-Methoxyphenyl)-[1,2,4]triazolo[3,4-a]phthalazin-6-yl]-[4-(4-methylpiperazin-1-yl)-phenyl]-amine] registered a melting point of 266 °C. The IC50 with HUVEC monolayers was 7.94 to 316 nM.

`c1ccc(-c2nnc3c4ccccc4c(Nc4ccc(N5CCOCC5)cc4)nn23)cc1` [Example 25, (4-Morpholin-4-ylphenyl)-(3-phenyl-[1,2,4]triazolo[3,4-a]phthalazin-6-yl)-amine] came in with a melting point of 306 °C. Moreover, the IC50 with HUVEC monolayers was 7.94 to 316 nM.

`COc1ccc(-c2nnc3c4ccccc4c(Nc4cc(OC)cc(OC)c4)nn23)cc1` [Example 27, (3,5-Dimethoxyphenyl)-[3-(4-methoxyphenyl)-[1,2,4]triazolo[3,4-a]phthalazin-6-yl]-amine]: the melting point was found to be 218 °C. In addition, the IC50 in the data set on HUVEC monolayers is 7.94 to 316 nM.

Turning to `CCOc1ccc(Nc2nn3c(-c4ccc(OC)cc4)nnc3c3ccccc23)cc1` [Example 12, (4-Ethoxyphenyl)-[3-(4-methoxyphenyl)-[1,2,4]triazolo[3,4-a]phthalazin-6-yl]-amine], the melting point turned out to be 297.5 °C. The concentration for half-maximal inhibition (IC50) in the data set with HUVEC monolayers is 7.94 to 316 nM.

On to `COc1ccc(-c2nnc3c4ccccc4c(Nc4ccc(OCc5ccccc5)cc4)nn23)cc1` [Example 10, (4-Benzyloxyphenyl)-[3-(4-methoxyphenyl)-[1,2,4]triazolo[3,4-a]phthalazin-6-yl]-amine], for which the melting point is 297 °C. Besides, in the data set with HUVEC monolayers, the IC50 was 7.94 to 316 nM.

For `COc1ccc(-c2nnc3c4ccccc4c(Nc4cccc(Oc5ccccc5)c4)nn23)cc1` [Example 9, [3-(4-Methoxyphenyl)-[1,2,4]triazolo[3,4-a]phthalazin-6-yl]-(3-phenoxyphenyl)-amine], in the data set on HUVEC monolayers, the 50% inhibitory concentration (IC50) is 7.94 to 316 nM.

Regarding `COc1ccc(-c2nnc3c4ccccc4c(Nc4ccc(CC#N)cc4)nn23)cc1` [Example 15, {4-[3-(4-Methoxyphenyl)-[1,2,4]triazolo[3,4-a]phthalazin-6-ylamino]-phenyl}-acetonitrile], the melting point amounted to 295 °C. Further, in the data set with HUVEC monolayers, the IC50 was 7.94 to 316 nM.

Compound `COc1ccc(-c2nnc3c4ccccc4c(Nc4ccc(Oc5ccccc5)cc4)nn23)cc1` [Example 8, [3-(4-Methoxyphenyl)-[1,2,4]triazolo[3,4-a]phthalazin-6-yl]-(4-phenoxyphenyl)-amine] showed a melting point of 275.5 °C. The IC50 with HUVEC monolayers is 7.94 to 316 nM.

The compound `COc1ccc(-c2nnc3c4ccccc4c(Nc4ccc(N5CCOCC5)cc4)nn23)cc1` [Example 13, [3-(4-Methoxyphenyl)-[1,2,4]triazolo[3,4-a]phthalazin-6-yl]-(4-morpholin-4-yl-phenyl)-amine] returned a melting point of 314 °C. In addition, the IC50 in the data set on HUVEC monolayers was 7.94 to 316 nM.

Compound `COc1ccc(-c2nnc3c4ccccc4c(Nc4ccc(Cl)cc4)nn23)cc1` [Example 5, (4-Chlorophenyl)-[3-(4-methoxyphenyl)-[1,2,4]triazolo[3,4-a]phthalazin-6-yl]-amine] had a melting point of 295 °C.

With `CC1CC(=O)NN=C1c1cc(-n2ccnc2)cs1` (stereo not shown) [Motapizone, reference compound], the “Effect on thrombin-induced hyperpermeability (HRP passage)” value with HUVEC monolayers is “completely blocked”.

For the compound `COc1ccc(-c2nnc3c4ccccc4c(Nc4ccc(C)cc4)nn23)cc1` [Example 11, [3-(4-Methoxyphenyl)-[1,2,4]triazolo[3,4-a]phthalazin-6-yl]-p-tolyl-amine], the melting point stood at 311 °C. The IC50 in the data set on HUVEC monolayers was 7.94 to 316 nM.

`COc1ccc(-c2nnc3c4ccccc4c(Nc4ccc(Br)cc4)nn23)cc1` [Example 31, (4-Bromo-phenyl)-[3-(4-methoxy-phenyl)-[1,2,4]triazolo[3,4-a]phthalazin-6-yl]-amine] gave a melting point of 314 to 316 °C.

As for `COC(=O)c1ccc(-c2nnc3c4ccccc4c(Nc4ccc(N5CCOCC5)cc4)nn23)cc1` [Example 22, 4-[6-(4-Morpholin-4-yl-phenylamino)-[1,2,4]triazolo[3,4-a]phthalazin-3-yl]-benzoic acid methyl ester], the melting point was 303 °C.

Regarding `COc1ccc(-c2nnc3c4ccccc4c(Nc4cccc(OC(F)(F)F)c4)nn23)cc1` [Example 24, [3-(4-Methoxyphenyl)-[1,2,4]triazolo[3,4-a]phthalazin-6-yl]-(3-trifluoromethoxyphenyl)-amine], in the data set on HUVEC monolayers, the half-maximal inhibitory concentration (IC50) is 7.94 to 316 nM.

As to `COc1ccc(-c2ccc(Nc3nn4c(-c5ccc(OC)cc5)nnc4c4ccccc34)cc2)cc1` [Example 6, (4′-Methoxybiphenyl-4-yl)-[3-(4-methoxyphenyl)-[1,2,4]triazolo[3,4-a]phthalazin-6-yl]-amine], in the data set on HUVEC monolayers, the IC50 was 7.94 to 316 nM.

`COc1ccc(-c2nnc3c4ccccc4c(Nc4ccc(SC)cc4)nn23)cc1` [Example 16, [3-(4-Methoxyphenyl)-[1,2,4]triazolo[3,4-a]phthalazin-6-yl]-(4-methylsulfanylphenyl)-amine] yielded a melting point of 326 °C. Besides, the half-inhibitory concentration (IC50) in the data set on HUVEC monolayers is 7.94 to 316 nM.

Compound `COc1ccc(Nc2nn3c(-c4ccc(OC)cc4)nnc3c3ccccc23)cc1` [Example 1, (4-Methoxyphenyl)-[3-(4-methoxyphenyl)-[1,2,4]triazolo[3,4-a]phthalazin-6-yl]-amine] registered a melting point of 301 to 304 °C.

As to `COC(=O)c1cccc(-c2nnc3c4ccccc4c(Nc4ccc(N5CCOCC5)cc4)nn23)c1` [Example 19, 3-[6-(4-Morpholin-4-yl-phenylamino)-[1,2,4]triazolo[3,4-a]phthalazin-3-yl]-benzoic acid methyl ester], the IC50 in the data set with HUVEC monolayers was 7.94 to 316 nM.

As for `COc1ccc(-c2nnc3c4ccccc4c(Nc4cccc(OCc5ccccc5)c4)nn23)cc1` [Example 4, (3-Benzyloxyphenyl)-[3-(4-methoxyphenyl)-[1,2,4]triazolo[3,4-a]phthalazin-6-yl]-amine], the melting point came out at 260 °C.

The compound `COc1ccc(-c2nnc3c4ccccc4c(Nc4cccc(OC(F)F)c4)nn23)cc1` [Example 28, [3-(1,1-Difluoromethoxy)-phenyl]-[3-(4-methoxyphenyl)-[1,2,4]triazolo[3,4-a]phthalazin-6-yl]-amine] came in with a melting point of 247 °C. Also, in the data set with HUVEC monolayers, the concentration for half-maximal inhibition (IC50) was 7.94 to 316 nM.

For `CCOc1cccc(Nc2nn3c(-c4ccc(OC)cc4)nnc3c3ccccc23)c1` [Example 23, (3-Ethoxyphenyl)-[3-(4-methoxyphenyl)-[1,2,4]triazolo[3,4-a]phthalazin-6-yl]-amine], the IC50 in the data set with HUVEC monolayers was 7.94 to 316 nM.

Take `Oc1ccccc1-c1nnc2c3ccccc3c(Nc3ccc(N4CCOCC4)cc3)nn12` [Example 26, 2-[6-(4-Morpholin-4-yl-phenylamino)-[1,2,4]triazolo[3,4-a]phthalazin-3-yl]-phenol]: the melting point came to 317 °C. The IC50 in the data set on HUVEC monolayers is 7.94 to 316 nM.

Consider “ANP: cGMP generator (SLRRSSCFGGRMDRIGAQSGLGCNSFRY; ends and bridges not checked; cysteine pairing not given here; UniProt P01160 124-151, looked up) [reference compound]”, for which the “Effect on the block of thrombin-induced hyperpermeability by RP73401 and Motapizone” value in the data set on HUVEC monolayers (1 mM SNP or 100 nM ANP added to 1 μM RP73401 and 10 μM Motapizone) is “partially reversed”.

For the compound `COc1ccc(-c2nnc3c4ccccc4c(Nc4ccc(OC)c(OC)c4)nn23)cc1` [Example 2, (3,4-Dimethoxy-phenyl)-[3-(4-methoxy-phenyl)-[1,2,4]triazolo[3,4-a]phthalazin-6-yl]-amine], in the data set with HUVEC monolayers, the concentration for half-maximal inhibition (IC50) is 7.94 to 316 nM.

Regarding `COc1ccc(-c2nnc3c4ccccc4c(Nc4cccc(OC)c4)nn23)cc1` [Example 7, (3-Methoxyphenyl)-[3-(4-methoxyphenyl)-[1,2,4]triazolo[3,4-a]phthalazin-6-yl]-amine], the half-inhibitory concentration (IC50) with HUVEC monolayers was 7.94 to 316 nM.

Compound `c1ccc2c(c1)c(Nc1ccc(N3CCOCC3)cc1)nn1c(-c3ccc(N4CCOCC4)cc3)nnc21` [Example 20, (4-Morpholin-4-yl-phenyl)-[3-(4-morpholin-4-yl-phenyl)-[1,2,4]triazolo[3,4-a]phthalazin-6-yl]-amine] displayed a melting point of 322 °C.
